As a reminder, the IC50 is the point on the concentration scale where inhibition reaches its midpoint. Broadly, the EC50 is the concentration that produces a half-maximal response.

Values joined by “and” are separate entries in the source; they are usually repeats but may differ in a detail not shown here. Identical values can stand only once.

The assay relates to rat liver AMPK. As to the kind of experiment: Allosteric activation and inhibition of native rat liver AMPK by AMP and ADP (SAMS peptide kinase assay). The class given is biochemical. The arrangement: IC50/EC50: unit not given beside the values. Conditions: for maximal extent of activation: Discussion (for ADP: rat liver AMPK and human α2β2γ1 complex); for effect of CD73 in the assay on allosteric activation by the nucleotide: AMP 0.3 mM or ADP 1 mM, CD73 550 ng. An excerpt: To study allosteric effects, we initially used a preparation of native rat liver AMPK [4]. While not homogeneous, this preparation has a high specific kinase activity (1.3 µmol/min/mg) and is a combination of the α1, α2, β1, β2 and γ1 subunit isoforms (Supplementary Figure S1). Being from a mammalian source both β subunit isoforms would be N-myristoylated and we have shown previously that the preparation is not contaminated with any protein phosphatases that dephosphorylate Thr172 [4]. We assessed the potential allosteric effects of both AMP and ADP at three different concentrations of ATP. We maintained Mg^2+ ions at a constant 4.8 mM excess above total ATP, a design that ensures that the concentration of the Mg.ATP^2− complex varies as a fixed proportion of total ATP [19].
As previously reported, with AMP we obtained bell-shaped curves due to activation at low concentrations combined with inhibition at higher concentrations (Figure 1). We have previously shown that the allosteric activation is due to binding of AMP to one or more of the regulatory sites on the γ subunit, whereas the inhibition is due to binding of AMP at the catalytic site within the α subunit kinase domain [4]. Consistent with the fact that ATP competes with AMP at both sites, as the ATP concentration was progressively raised from 0.2 to 1.0 and 5 mM, the bell-shaped curves shifted to the right, towards higher concentrations of AMP. The data were fitted to an equation for activation at one site and inactivation at a second site, as detailed in the legend to Figure 1. The best-fit parameters are shown in Supplementary Table S1, and these values were used to draw the curves in Figure 1A–C; the best-fit estimates for EC50 and IC50 are indicated by dashed vertical lines, faint lines for AMP and heavier lines for ADP.
Figure 1. Allosteric activation of rat liver AMPK by AMP and ADP at three different concentrations of ATP. (A) 200 µM ATP; (B) 1 mM ATP; (C) 5 mM ATP. [Mg^2+] was maintained at a constant excess of 4.8 mM above [ATP] as recommended previously. Results (mean ± SD, n = 2) were fitted to the equation: Y = 1 + (((Activation-1) × X)/(EC50 + X))-(((activation) × X)/(IC50 + X)), where Y is the activity, X is the concentration of AMP or ADP, Activation is the extrapolated maximal activation by AMP or ADP, EC50 is the concentration of AMP or ADP causing half-maximal activation, and IC50 is the concentration of AMP or ADP causing half-maximal inhibition. The dashed vertical lines show the estimated EC50 and IC50 values, faint lines for AMP and bold lines for ADP. A reliable estimate of EC50 could not be computed for ADP at 0.2 mM ATP (graph (A)). Best-fit values of all parameters used to generate the curves are listed in Supplementary Table S1.
Figure 2. Allosteric activation of rat liver AMPK by AMP and ADP in the presence and absence of the nucleotidase CD73. Allosteric activation was assessed as in Figure 1 with a single fixed concentration of AMP or ADP (0.3 or 1 mM respectively) in the presence or absence of CD73 (550 ng). Statistical significance of differences in results (mean ± SEM, n = 3) were assessed by two-way ANOVA. Effect of nucleotide: ****P < 0.0001; effect of CD73: ^††††P < 0.0001, ns, not significant.
AMPK assays measured the transfer of radioactivity from [γ-^33P]ATP to a peptide substrate, which was separated from unreacted ATP by binding to P81 paper. This assay was described previously except that we used [γ-^33P] rather than [γ-^32P]ATP. In some assays (specified in Figure legends) the concentration of ATP was increased from 0.2 to 1 or 5 mM ATP, with MgCl2 concentrations maintained at a constant 4.8 mM excess above the concentration of ATP [19]. Where allosteric activation by AMP or ADP was being studied, we used the SAMS peptide as substrate. For all other assays the AMARA peptide was used.

In the case of `Nc1ncnc2c1ncn2[C@@H]1O[C@H](COP(=O)(O)OP(=O)(O)O)[C@@H](O)[C@H]1O` [ADP], the “maximal extent of activation” value (5 mM ATP) was “≈ 1.5 fold”. Where the note is “rat liver AMPK, 0.2 mM ATP”, the “Activation (extrapolated maximal activation)” value is “no activation was detectable and none”; the IC50 stood at 400 µM. In addition, the “observed maximal extent of activation above basal” value (rat liver AMPK, 1 mM ATP) was “≈ 25%”. Also, for the setting “rat liver AMPK, 1.0 mM ATP”, the “Activation (extrapolated maximal activation)” value was 2.4 fold and 2.4 (1.8 -??) fold; the EC50 came to 122 µM; the IC50 was 690 µM; the IC50/EC50 was 6 and 5.7. The “observed maximal extent of activation above basal” value (rat liver AMPK, 5 mM ATP) was “≈ 50%”. Besides, for the setting “rat liver AMPK, 5.0 mM ATP”, the “Activation (extrapolated maximal activation)” value was 2.0 fold and 2.0 (1.7 -2.8) fold; the EC50 is 220 µM; the IC50 stood at 4000 µM; the IC50/EC50 was found to be 18. Besides, under “rat liver AMPK”, the “effect of CD73 in the assay on allosteric activation by the nucleotide” value was “did not significantly affect”.
On to `Nc1ncnc2c1ncn2[C@@H]1O[C@H](COP(=O)(O)O)[C@@H](O)[C@H]1O` [AMP], for which the “maximal extent of activation” value (5 mM ATP) came out at 3 fold. Besides, where the note is “rat liver AMPK, 0.2 mM ATP”, the “Activation (extrapolated maximal activation)” value is 2.9 (2.8 -3.0) fold, the EC50 is 6.4 µM, the IC50 is 1700 µM and the IC50/EC50 was found to be 270. Further, for the setting “rat liver AMPK, 1.0 mM ATP”, the “Activation (extrapolated maximal activation)” value is given as 2.8 (2.7-2.9) fold, the EC50 turned out to be 14 µM, the IC50 worked out at 6900 µM and the IC50/EC50 is 490. Under “rat liver AMPK, 5.0 mM ATP”, the “Activation (extrapolated maximal activation)” value is 3.7 (3.5-3.8) fold; the EC50 stood at 36 µM; the IC50 turned out to be 17000 µM; the IC50/EC50 was ~500 and 470. In addition, where the note is “rat liver AMPK, 0.2 to 5 mM ATP”, the “degree of activation over basal” value is on record as 3- to 4 fold. Besides, the “effect of CD73 in the assay on allosteric activation by the nucleotide” value (rat liver AMPK) is listed as “completely abolished”.

The values above are taken from paper PMC11088877, “AMP-activated protein kinase can be allosterically activated by ADP but AMP remains the key activating ligand” (Biochemical Journal, 2024).
